This experiment has as its target T1, JH2 domain of human Tyk2 (Homo sapiens, UniProt P29597).
T1 construct: 10×His-tagged TYK2 JH2 domain (amino acid 575-876)
As to the kind of experiment: JH2 biochemical assay (TR-FRET probe displacement). In kind it is binding. The conditions noted are these: JH2 biochemical assay. How it is done:
The inhibitory potency of compounds of the disclosure against the kinase activity of recombinantly generated JH2 domain of human Tyk2 was evaluated in a plate-based assay using a TR-FRET assay platform. Briefly, 2 nM of recombinant JH2 domain [10×His-tagged TYK2 JH2 domain (amino acid 575-876)] was combined with 2 nM probe ((S)-6-amino-9-(2-carboxy-4-((1-(3-(8-methyl-5-(methylamino)-8H-imidazo[4,5-d]thiazolo[5,4-b]pyridin-2-yl)phenyl)ethyl)carbamoyl)phenyl)-3-iminio-5-sulfo-3H-xanthene-4-sulfonate), 0.1 nM Tb-labeled anti-His antibody, and compounds of disclosure for 60 minutes. Compounds are tested at either […] top concentration, 10 points of 3-fold dilution. The TR-FRET signal […] by compounds and signal was calculated by taking the ratio of fluorescence at 520 nm and 495 nm. The data was normalized and the percent activity versus log concentration of compound was fitted with a 4-parameter logistic model to generate IC50 curves.
On the technique in general: TR-FRET usually uses a lanthanide donor and a delayed reading to cut background.

Each structure is given as a SMILES string. Counter-ions that a name gives are not always drawn. Where only a bound is given, the exact number is not on record here.

In general, IC50 refers to the concentration that inhibits the measured activity by half. A higher IC50 goes with weaker potency.

T1 sequence (P29597 575-876): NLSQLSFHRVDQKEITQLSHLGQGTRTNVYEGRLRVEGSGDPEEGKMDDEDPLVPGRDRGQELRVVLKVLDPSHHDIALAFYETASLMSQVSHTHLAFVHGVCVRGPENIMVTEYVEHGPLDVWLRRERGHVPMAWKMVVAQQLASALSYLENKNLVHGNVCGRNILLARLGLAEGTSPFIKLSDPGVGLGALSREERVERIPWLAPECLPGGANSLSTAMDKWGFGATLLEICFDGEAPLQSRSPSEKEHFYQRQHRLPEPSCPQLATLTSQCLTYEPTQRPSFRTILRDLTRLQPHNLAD

Compound `CC(=O)Nc1cc2c(cn1)C1(CC1)CN2c1cc(O[C@@H]2COC[C@H]2F)nc(C(C)(F)F)n1` (racemic) [Example 150, Trans-rac-N-(1′-(2-(1,1-difluoroethyl)-6-(((3RS,4R)-4-fluorotetrahydrofuran-3-yl)oxy)pyrimidin-4-yl)-1′,2′-dihydrospiro[cyclopropane-1,3′-pyrrolo[3,2-c]pyridin]-6′-yl)acetamide trifluoroacetate] displayed an IC50 of 10 to 100 nM. For `CC(=O)Nc1cc2c(cn1)C1(CC1)CN2c1ccnc(C2COC2)n1` [Example 3, N-(1′-(2-(oxetan-3-yl)pyrimidin-4-yl)-1′,2′-dihydrospiro[cyclopropane-1,3′-pyrrolo[3,2-c]pyridin]-6′-yl)acetamide] the value was 10 to 100 nM. For `CC(=O)Nc1cc2c(cn1)C1(CC1)CN2c1cc(NC(C)=O)nc(C(C)(F)F)n1` [Example 15, N-(1′-(6-acetamido-2-(1,1-difluoroethyl)pyrimidin-4-yl)-1′,2′-dihydrospiro[cyclopropane-1,3′-pyrrolo[3,2-c]pyridin]-6′-yl)acetamide] the value was not above 10 nM. For `CC(=O)Nc1cc2c(cn1)C1(CC1)CN2c1cc(C)ncn1` [Example 27, N-(1′-(6-methylpyrimidin-4-yl)-1′,2′-dihydrospiro[cyclopropane-1,3′-pyrrolo[3,2-c]pyridin]-6′-yl)acetamide] the value was 10 to 100 nM; for `CC(=O)Nc1cc2c(cn1)C1(CC1)CN2c1cc(C)nc2cc(C)nn12` [Example 28, N-(1′-(2,5-dimethylpyrazolo[1,5-a]pyrimidin-7-yl)-1′,2′-dihydrospiro[cyclopropane-1,3′-pyrrolo[3,2-c]pyridin]-6′-yl)acetamide], not below 1000 nM; for `CC(=O)Nc1cc2c(cn1)CCN2c1ccnc(C(C)(F)F)n1` [Example 30, N-(1-(2-(1,1-difluoroethyl)pyrimidin-4-yl)-2,3-dihydro-1H-pyrrolo[3,2-c]pyridin-6-yl)acetamide], 100 to 1000 nM. For `CC(=O)Nc1cc2c(cn1)CCN2c1cccc(C2CCOC2)n1` (centres unmarked) [Example 33, N-(1-(6-(tetrahydrofuran-3-yl)pyridin-2-yl)-2,3-dihydro-1H-pyrrolo[3,2-c]pyridin-6-yl)acetamide], the IC50 lay within 10 to 100 nM. For `CC(=O)Nc1cc2c(cn1)C1(CC1C)CN2c1nccc(C(C)(F)F)n1` (centres unmarked) [Example 36, N-(1′-(4-(1,1-difluoroethyl)pyrimidin-2-yl)-2-methyl-1′,2′-dihydrospiro[cyclopropane-1,3′-pyrrolo[3,2-c]pyridin]-6′-yl)acetamide] the value was 10 to 100 nM; for `CC(=O)Nc1cc2c(cn1)C1(CCC1)CN2c1nccc(C(C)(F)F)n1` [Example 40, N-(1′-(4-(1,1-difluoroethyl)pyrimidin-2-yl)-1′,2′-dihydrospiro[cyclobutane-1,3′-pyrrolo[3,2-c]pyridin]-6′-yl)acetamide], 10 to 100 nM; for `CC(=O)Nc1cc2c(cn1)C1(CCCC1)CN2c1nccc(C(C)(F)F)n1` [Example 43, N-(1′-(4-(1,1-difluoroethyl)pyrimidin-2-yl)-1′,2′-dihydrospiro[cyclopentane-1,3′-pyrrolo[3,2-c]pyridin]-6′-yl)acetamide], 100 to 1000 nM. For `CC(=O)Nc1cc2c(cn1)C1(CCCC1)CN2c1ccnc(C(C)(F)F)n1` [Example 44, N-(1′-(2-(1,1-difluoroethyl)pyrimidin-4-yl)-1′,2′-dihydrospiro[cyclopentane-1,3′-pyrrolo[3,2-c]pyridin]-6′-yl)acetamide] the value was 100 to 1000 nM; for `CC(=O)Nc1cc2c(cn1)C1(CCCC1)CN2c1cccc(C(C)(F)F)n1` [Example 45, N-(1′-(6-(1,1-difluoroethyl)pyridin-2-yl)-1′,2′-dihydrospiro[cyclopentane-1,3′-pyrrolo[3,2-c]pyridin]-6′-yl)acetamide], 100 to 1000 nM; for `CC(=O)Nc1cc2c(cn1)C1(CCOCC1)CN2c1nccc(C(C)(F)F)n1` [Example 46, N-(1′-(4-(1,1-difluoroethyl)pyrimidin-2-yl)-1′,2,2′,3,5,6-hexahydrospiro[pyran-4,3′-pyrrolo[3,2-c]pyridin]-6′-yl)acetamide], not below 1000 nM. For `CC(=O)Nc1cc2c(cn1)C1(CCOCC1)CN2c1ccnc(C(C)(F)F)n1` [Example 47, N-(1′-(2-(1,1-difluoroethyl)pyrimidin-4-yl)-1′,2,2′,3,5,6-hexahydrospiro[pyran-4,3′-pyrrolo[3,2-c]pyridin]-6′-yl)acetamide] the value was not below 1000 nM. `CC(=O)Nc1cc2c(cn1)C1(CCOCC1)CN2c1cccc(C(C)(F)F)n1` [Example 48, N-(1′-(6-(1,1-difluoroethyl)pyridin-2-yl)-1′,2,2′,3,5,6-hexahydrospiro[pyran-4,3′-pyrrolo[3,2-c]pyridin]-6′-yl)acetamide]: the IC50 was 100 to 1000 nM. For `CC(=O)Nc1cc2c(cn1)C1(CC1)CN2c1cc(C)nc(C)n1` [Example 68, N-(1′-(2,6-dimethylpyrimidin-4-yl)-1′,2′-dihydrospiro[cyclopropane-1,3′-pyrrolo[3,2-c]pyridin]-6′-yl)acetamide] the value was 10 to 100 nM; for `CC(=O)Nc1cc2c(cn1)C1(CC1)CN2c1nccs1` [Example 77, N-(1′-(thiazol-2-yl)-1′,2′-dihydrospiro[cyclopropane-1,3′-pyrrolo[3,2-c]pyridin]-6′-yl)acetamide trifluoroacetate], 100 to 1000 nM; for `CC(=O)Nc1cc2c(cn1)C1(CC1)CN2c1ncc(C)s1` [Example 78, N-(1′-(5-methylthiazol-2-yl)-1′,2′-dihydrospiro[cyclopropane-1,3′-pyrrolo[3,2-c]pyridin]-6′-yl)acetamide trifluoroacetate], 10 to 100 nM. `CC(=O)Nc1cc2c(cn1)C1(CC1)CN2c1cc(C)nc(C2CC3CCC2O3)n1` (centres unmarked) [Example 102, N-(1′-(2-(7-oxabicyclo[2.2.1]heptan-2-yl)-6-methylpyrimidin-4-yl)-1′,2′-dihydrospiro[cyclopropane-1,3′-pyrrolo[3,2-c]pyridin]-6′-yl)acetamide trifluoroacetate] displayed an IC50 of 10 to 100 nM. `CC(=O)Nc1cc2c(cn1)C1(CC1)CN2c1cc(C)nc(C2CCCN(C)C2)n1` (centres unmarked) [Example 117, N-(1′-(6-methyl-2-(1-methylpiperidin-3-yl)pyrimidin-4-yl)-1′,2′-dihydrospiro[cyclopropane-1,3′-pyrrolo[3,2-c]pyridin]-6′-yl)acetamide] came in with an IC50 not below 1000 nM.

`CC(=O)Nc1cc2c(cn1)C1(CC1)CN2c1cc(C)nc(C2CCCCN2C)n1` (centres unmarked) [Example 118, N-(1′-(6-methyl-2-(1-methylpiperidin-2-yl)pyrimidin-4-yl)-1′,2′-dihydrospiro[cyclopropane-1,3′-pyrrolo[3,2-c]pyridin]-6′-yl)acetamide] returned an IC50 not below 1000 nM. For `CC(=O)Nc1cc2c(cn1)C1(CC1)CN2c1cc(C)nc(C2CCN(C(C)C)CC2)n1` [Example 121, N-(1′-(2-(1-isopropylpiperidin-4-yl)-6-methylpyrimidin-4-yl)-1′,2′-dihydrospiro[cyclopropane-1,3′-pyrrolo[3,2-c]pyridin]-6′-yl)acetamide] the value was not below 1000 nM; for `COC(C)c1nccc(N2CC3(CC3)c3cnc(NC(C)=O)cc32)n1` (centres unmarked) [Example 131, N-(1′-(2-(1-methoxyethyl)pyrimidin-4-yl)-1′,2′-dihydrospiro[cyclopropane-1,3′-pyrrolo[3,2-c]pyridin]-6′-yl)acetamide], 10 to 100 nM. For `COC(C)(C)c1nccc(N2CC3(CC3)c3cnc(NC(C)=O)cc32)n1` [Example 132, N-(1′-(2-(2-methoxypropan-2-yl)pyrimidin-4-yl)-1′,2′-dihydrospiro[cyclopropane-1,3′-pyrrolo[3,2-c]pyridin]-6′-yl)acetamide] the value was 10 to 100 nM.

Regarding `CC(=O)Nc1cc2c(cn1)C1(CC1)CN2c1cc(C)[nH]c(=O)n1` [Example 134, N-(1′-(6-methyl-2-oxo-1,2-dihydropyrimidin-4-yl)-1′,2′-dihydrospiro[cyclopropane-1,3′-pyrrolo[3,2-c]pyridin]-6′-yl)acetamide], the IC50 was not below 1000 nM.

Turning to `CC(=O)Nc1cc2c(cn1)C1(CC1)CN2c1nc(C)cc(=O)[nH]1` [Example 135, N-(1′-(4-methyl-6-oxo-1,6-dihydropyrimidin-2-yl)-1′,2′-dihydrospiro[cyclopropane-1,3′-pyrrolo[3,2-c]pyridin]-6′-yl)acetamide], the IC50 was not below 1000 nM. The compound `CCN1CC(Oc2cc(N3CC4(CC4)c4cnc(NC(C)=O)cc43)nc(C(C)(F)F)n2)C1` [Example 148, N-(1′-(2-(1,1-difluoroethyl)-6-((1-ethylazetidin-3-yl)oxy)pyrimidin-4-yl)-1′,2′-dihydrospiro[cyclopropane-1,3′-pyrrolo[3,2-c]pyridin]-6′-yl)acetamide trifluoroacetate] had an IC50 not below 1000 nM. The same measure for `CC(=O)Nc1cc2c(cn1)C1(CC1)CN2c1cc(C)nc(N2CC(C#N)(CF)C2)n1` [Example 218, N-(1′-(2-(3-cyano-3-(fluoromethyl)azetidin-1-yl)-6-methylpyrimidin-4-yl)-1′,2′-dihydrospiro[cyclopropane-1,3′-pyrrolo[3,2-c]pyridin]-6′-yl)acetamide]: not above 10 nM.

For the compound `COC1CCCN(c2nc(C)cc(N3CC4(CC4)c4cnc(NC(C)=O)cc43)n2)C1` (centres unmarked) [Example 230, N-(1′-(2-(3-methoxypiperidin-1-yl)-6-methylpyrimidin-4-yl)-1′,2′-dihydrospiro[cyclopropane-1,3′-pyrrolo[3,2-c]pyridin]-6′-yl)acetamide], the IC50 lay within 100 to 1000 nM.
